From PubChem BioAssay (NCI) come the findings set out here.

What all share (test): NCI anticancer screen, dose series, 48 h
Assay [1] has as its system A498 renal.
Assay [2] deals with IGROV1 ovarian.
For assay [3], the system named is NCI-H460 lung.
The subject of assay [4] is HCT-116 colon.
Assay [5] concerns NCI/ADR-RES ovarian.
The test system of assay [6] is HS 578T breast.
Assay [7] concerns NCI-H23 lung.
Assay [8] deals with OVCAR-5 ovarian.
In assay [9] the test system is RXF 393 renal.
In assay [10] the test system is SK-MEL-2 melanoma.

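Protocol summary: plate cells (96-well), add compound at 5 concentrations, incubate 48 h, interpolate endpoints linearly. GI50 is the concentration that inhibits growth by half. TGI: concentration producing complete growth inhibition.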

On to `O=C(CCc1ccco1)NC1CCN(CC2(c3ccc(Cl)cc3)CCC2)CC1`, for which the GI50 in assay [1] is 0.0318 µM; in assay [2], 19.5 µM; in assay [3] it was 15.1 µM; in [4], 12.2 µM; in [5] it was 14.6 µM; in assay [6], 13.6 µM. In addition, the GI50 is 16.9 µM in assay [7], 15.1 µM in assay [8], 8.53 µM in assay [9] and 16.9 µM in [10]. Also, the TGI in assay [1] stood at 11.9 µM; in assay [2], 45.8 µM; in assay [3], 28.4 µM; in assay [4] it was 24.5 µM; in [5], 36 µM; in assay [6], 31.4 µM. Moreover, the TGI in assay [7] was determined as 38.7 µM; in assay [8], 29.1 µM; in assay [9] it was 22.6 µM; in assay [10] it was 31.7 µM.
As for `Cc1cc(S(N)(=O)=O)c(S/C(=N\Nc2ccc([N+](=O)[O-])cc2)c2ccc(O)cc2)cc1Cl`, the GI50 was 7.56 µM in [1]; 4.62 µM in [2]; 2.94 µM in [3]; 2.89 µM in assay [4]; 2.64 µM in assay [5]; 2.92 µM in assay [6]. For the same compound, the GI50 in assay [7] was 2.42 µM; in assay [8], 2.09 µM; in assay [9] it was 0.676 µM; in assay [10], 3.9 µM. Moreover, the TGI came out at 20.5 µM in assay [1]; 19.9 µM in assay [2]; 10.1 µM in assay [3]; 10.6 µM in assay [4]; 8.57 µM in [5]; 9.27 µM in [6]. The TGI in assay [7] worked out at 7.54 µM; in assay [8], 4.71 µM; in assay [9], 3.5 µM; in assay [10] it was 53.3 µM.
Turning to `OC(COc1cccc2ccccc12)CN1CCN(c2ccc(Cl)cc2)CC1` (stereo not given), the GI50 in assay [1] was 21.3 µM; in [2], 14.6 µM; in assay [3], 15.7 µM; in assay [4], 23.4 µM; in assay [5], 16.4 µM; in assay [6], 23.4 µM. Besides, the GI50 is 29.4 µM in assay [7], above 100 µM in assay [8], 28.6 µM in assay [9] and 21.7 µM in [10]. The TGI in assay [1] was 92 µM; in assay [2] it was 40 µM; in assay [3], above 100 µM; in assay [4], above 100 µM; in assay [5] it was 61.1 µM; in assay [6], above 100 µM. The TGI is above 100 µM in assay [7], above 100 µM in assay [8], 75.9 µM in assay [9] and 60.3 µM in [10].
In the case of `[C-]#[O+].[C-]#[O+].[Ir].[O-]c1ccc2ccccc2c1N=Nc1ccccc1`, the TGI is 33.3 µM in assay [1]; 37.1 µM in assay [2]; above 70.6 µM in [3]; 24.7 µM in [4]; 51.8 µM in assay [5]; above 100 µM in assay [6]. Further, the TGI is 31.7 µM in assay [7], 38.3 µM in [8], 6.78 µM in assay [9] and 49.1 µM in [10].
As to `Clc1ccccc1-c1nc(-c2ccncc2)no1`, the TGI in [1], in assay [2], in assay [3], in [4], in assay [5] and in assay [6] was above 100 µM each time. Moreover, the TGI in assay [7], in assay [8], in assay [9] and in assay [10] was above 100 µM each time.
